Data from PubChem BioAssay (NCI).
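Briefly, cells in 96-well plates were exposed to five compound concentrations for 48 h, and endpoints were estimated by linear interpolation. TGI: total growth inhibition.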

Experiments:
Test in all cases: NCI-60 cell line screen, 48 h
[1] = system: NCI-H522 lung
[2] = system: BT-549 breast
[3] = system: HL-60(TB) leukemia
[4] = system: SW-620 colon
[5] = system: HCC-2998 colon
[6] = system: TK-10 renal
[7] = system: ACHN renal
[8] = system: SN12C renal
[9] = system: OVCAR-3 ovarian
[10] = system: 786-0 renal
[11] = system: DU-145 prostate
[12] = system: SF-539 CNS
[13] = system: MDA-MB-231 breast
[14] = system: CCRF-CEM leukemia
[15] = system: IGROV1 ovarian
[16] = system: OVCAR-4 ovarian
[17] = system: U251 CNS
[18] = system: RPMI-8226 leukemia
[19] = system: UO-31 renal
[20] = system: NCI-H23 lung
[21] = system: KM12 colon
[22] = system: NCI/ADR-RES ovarian
[23] = system: SNB-19 CNS
[24] = system: HT29 colon
[25] = system: HOP-92 NSCLC
[26] = system: COLO 205 colon
[27] = system: HCT-15 colon
[28] = system: RXF 393 renal
[29] = system: SK-MEL-2 melanoma
[30] = system: MCF7 breast
[31] = system: SNB-75 CNS
[32] = system: SF-268 CNS
[33] = system: SK-OV-3 ovarian
[34] = system: HCT-116 colon
[35] = system: UACC-62 melanoma
[36] = system: CAKI-1 renal
[37] = system: UACC-257 melanoma
[38] = system: OVCAR-5 ovarian
[39] = system: SK-MEL-28 melanoma
[40] = system: SK-MEL-5 melanoma
[41] = system: SF-295 CNS
[42] = system: M14 melanoma
[43] = system: A498 renal
[44] = system: A549 NSCLC
[45] = system: PC-3 prostate
[46] = system: HS 578T breast
[47] = system: HOP-62 NSCLC
[48] = system: MDA-MB-435
[49] = system: EKVX NSCLC
[50] = system: NCI-H460 lung
[51] = system: T-47D breast
[52] = system: SR leukemia
[53] = system: MALME-3M melanoma
[54] = system: LOX IMVI melanoma

Measured: TGI

CCc1nc(N)nc(N)c1-c1ccc(Cl)c(Cl)c1
> 100 µM: all assays above
